Among the data in PubChem BioAssay (NCI) are TGI values, retold here.

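Method: 48-hour compound exposure of cells in 96-well plates, five concentrations, linear interpolation of endpoints. The concentration for full growth arrest is given as TGI.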 Bounds are passed on as bounds.

Some test systems named below: CAKI-1 renal; HCT-15 colon; HOP-62 NSCLC; LOX IMVI melanoma; MALME-3M melanoma; MDA-MB-435; NCI-H460 lung; OVCAR-4 ovarian; SF-295 CNS; U251 CNS.
What all share (test): NCI-60 cell line screen, 48 h

On to `CC(C)(C)c1ccc(-c2nnc(-c3cc(C#N)cc(-c4nnc(-c5ccc(C(C)(C)C)cc5)o4)c3)o2)cc1`, for which the TGI in the experiment on CAKI-1 renal, with HCT-15 colon, in the experiment on HOP-62 NSCLC, with LOX IMVI melanoma, with MALME-3M melanoma and in the experiment on MDA-MB-435 was over 100 µM in each case. The TGI in the experiment on NCI-H460 lung, in the experiment with OVCAR-4 ovarian, with SF-295 CNS and with U251 CNS was over 100 µM each time.
With `CC1(C)CCC2(C(=O)OC3OC(CO)C(O)C(O)C3O)CCC3(CO)C(=CCC4C5(C)CC(O)C(O)C(C)(C(=O)OC6OC(CO)C(O)C(O)C6O)C5CCC43C)C2C1` (stereo not given), the TGI with CAKI-1 renal, in the experiment with HCT-15 colon, in the experiment on HOP-62 NSCLC, with LOX IMVI melanoma, with MALME-3M melanoma and in the experiment on MDA-MB-435 was over 100 µM throughout. Further, the TGI in the experiment with NCI-H460 lung, with OVCAR-4 ovarian, in the experiment with SF-295 CNS and in the experiment with U251 CNS was over 100 µM throughout.
Regarding `O=S1(=O)CCN(c2ccccc2CC(c2c[nH]c3ccccc23)c2c[nH]c3ccccc23)CC1`, the TGI is over 85.2 µM in the experiment with CAKI-1 renal; 36.3 µM in the experiment on HCT-15 colon; 35.7 µM with HOP-62 NSCLC; 11.6 µM with LOX IMVI melanoma; 43.7 µM in the experiment with MALME-3M melanoma; over 31.7 µM in the experiment on MDA-MB-435. Moreover, the TGI was 13 µM with NCI-H460 lung, over 63.7 µM in the experiment on OVCAR-4 ovarian, 49.9 µM with SF-295 CNS and 24 µM with U251 CNS.
